Twelve compounds from ChEMBL document CHEMBL1201862, “PubChem BioAssay data set” (2004) can be followed below.

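Step 1: Grow cells in 96-well plates. Step 2: Expose to compound for 48 hours at 5 concentrations. Step 3: Interpolate endpoints linearly; if unreached, use highest concentration. GI50: concentration for 50% inhibition of growth.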 Activity calls are given as the source filed them. Cut-off read from the data, not from the text of the source: active = GI50 up to about 1.1 µM and inactive = higher.

Test systems include CCRF-CEM; HL-60; HOP-62; LOX IMVI; LXFL 529; NCI-H460; OVCAR-4; RPMI-8226; RXF 393; SF-268; SF-539; TK-10; A498; HOP-92; Malme-3M; UACC-257; UO-31; Hs-578T; MDA-MB-231; SR.
Common to all, as to experiment: inhibition of tumour cell growth, NCI panel, 48 h

`CC1CC#CCOC(=O)CCCC1=O` (stereo not given): the GI50 in the assay with CCRF-CEM, in the assay on HL-60, with HOP-62, in the assay on LOX IMVI, with LXFL 529 and in the assay on NCI-H460 was > 100 µM (inactive) each time. The GI50 in the assay on OVCAR-4, with RPMI-8226, in the assay with RXF 393, with SF-268, in the assay on SF-539 and in the assay with TK-10 was > 100 µM (inactive) throughout.

Take `CS(=O)(=O)NNS(=O)(=O)c1ccc(Br)cc1`: the GI50 with A498, in the assay on CCRF-CEM, in the assay with HL-60, in the assay on HOP-62, with HOP-92 and in the assay on LOX IMVI was > 100 µM (inactive) each time. The GI50 in the assay with LXFL 529, in the assay on Malme-3M, with NCI-H460, with OVCAR-4, in the assay on RPMI-8226 and in the assay with RXF 393 was > 100 µM (inactive) in each case. The GI50 with SF-268, with SF-539, in the assay with TK-10, with UACC-257 and in the assay on UO-31 was > 100 µM (inactive) in each case.

For the compound `CC(=O)OC1(C)C(=O)OC1(C)C(C)=O` (stereo not given), the GI50 in the assay on A498, in the assay with CCRF-CEM, in the assay on HL-60, with HOP-92, in the assay on LOX IMVI and with LXFL 529 was > 100 µM (inactive) in each case. Moreover, the GI50 in the assay with Malme-3M, with OVCAR-4, in the assay on RPMI-8226, in the assay on RXF 393, in the assay with SF-268 and in the assay on SF-539 was > 100 µM (inactive) each time. Besides, the GI50 with TK-10, in the assay on UACC-257 and in the assay on UO-31 was > 100 µM (inactive) each time.

`CSC(C1c2ccccc2N(C)C2=NC(=O)N(C)C(=O)C21Cl)S(=O)(=O)c1ccc(C)cc1` (stereo not given): the GI50 in the assay on A498 was > 100 µM (inactive); in the assay with CCRF-CEM, 9.04 µM (inactive); with HL-60, 14.2 µM (inactive); in the assay on HOP-62, > 100 µM (inactive); with HOP-92, 24.9 µM (inactive); with LOX IMVI, 45.8 µM (inactive). For the same compound, the GI50 was 22.2 µM (inactive) with LXFL 529; 40.3 µM (inactive) in the assay on Malme-3M; > 100 µM (inactive) with NCI-H460; 61.2 µM (inactive) in the assay with OVCAR-4; 26.2 µM (inactive) in the assay with RPMI-8226; 29.3 µM (inactive) in the assay on SF-268. The GI50 in the assay with SF-539 is 42 µM (inactive); with TK-10, > 100 µM (inactive); in the assay with UACC-257, 79.1 µM (inactive); in the assay on UO-31, 79.8 µM (inactive).

For `C/C(CC(=O)CCCC(=O)Nc1ccc(Cl)cc1Cl)=N/NC(=O)CC#N`, the GI50 in the assay with A498, in the assay with CCRF-CEM, with HL-60, in the assay on LOX IMVI, in the assay on LXFL 529 and in the assay on Malme-3M was > 100 µM (inactive) throughout. Further, the GI50 in the assay with NCI-H460, in the assay with OVCAR-4, in the assay with RPMI-8226, in the assay on RXF 393, in the assay on SF-268 and in the assay on SF-539 was > 100 µM (inactive) each time. For the same compound, the GI50 in the assay with TK-10, with UACC-257 and in the assay on UO-31 was > 100 µM (inactive) each time.

Take `COP12(OC)NC(=O)OC1(C(F)(F)F)c1ccccc1O2` (stereo not given): the GI50 in the assay on CCRF-CEM, with HL-60, in the assay on LOX IMVI, in the assay with LXFL 529, in the assay on Malme-3M and with NCI-H460 was > 100 µM (inactive) in each case. The GI50 in the assay on OVCAR-4, in the assay with RXF 393, with SF-268, with SF-539, with TK-10 and with UACC-257 was > 100 µM (inactive) in each case.

Consider `OC12c3ccccc3C1(N1CCOCC1)CCCCC21OCCCO1` (stereo not given), for which the GI50 with A498, with CCRF-CEM, in the assay on HL-60, with HOP-62, with LOX IMVI and with LXFL 529 was > 100 µM (inactive) throughout. In addition, the GI50 in the assay with Malme-3M, in the assay on NCI-H460, in the assay on OVCAR-4, with RPMI-8226, in the assay on RXF 393 and in the assay on SF-268 was > 100 µM (inactive) each time. The GI50 in the assay with SF-539, with TK-10 and in the assay with UACC-257 was > 100 µM (inactive) each time.

As to `C[N+](C)=c1[nH]c2ccccc2[nH]1`, the GI50 with CCRF-CEM, in the assay with HL-60, in the assay on HOP-62, in the assay with HOP-92, in the assay on LOX IMVI and in the assay with LXFL 529 was > 100 µM (inactive) throughout. For the same compound, the GI50 in the assay with Malme-3M, in the assay on NCI-H460, in the assay with OVCAR-4, with RPMI-8226, in the assay with RXF 393 and with SF-268 was > 100 µM (inactive) each time. The GI50 with SF-539, with TK-10, in the assay with UACC-257 and with UO-31 was > 100 µM (inactive) in each case.

`CCn1c(=O)nc2n(-c3ccc(SC)cc3)c3ccccc3nc-2c1=O`: the GI50 is > 100 µM (inactive) in the assay with A498; > 100 µM (inactive) with CCRF-CEM; 35.7 µM (inactive) in the assay on HL-60; > 100 µM (inactive) with HOP-62; > 100 µM (inactive) in the assay on HOP-92; > 100 µM (inactive) in the assay with LXFL 529. Also, the GI50 with Malme-3M was > 100 µM (inactive); with NCI-H460 it was 20.9 µM (inactive); in the assay with OVCAR-4, > 100 µM (inactive); with RPMI-8226, 71.1 µM (inactive); with SF-268 it was 79.8 µM (inactive); in the assay on SF-539, 54 µM (inactive). In addition, the GI50 in the assay with TK-10, with UACC-257 and in the assay with UO-31 was > 100 µM (inactive) in each case.

Take `CC1(C)CCCC2CC2CCC(C)(C)C1=O` (stereo not given): the GI50 with A498 was > 100 µM (inactive); in the assay on CCRF-CEM it was 15.7 µM (inactive); in the assay on HL-60 it was 18.1 µM (inactive); in the assay on HOP-62, > 100 µM (inactive); in the assay with HOP-92, 74.8 µM (inactive); in the assay on Hs-578T, > 100 µM (inactive). Moreover, the GI50 in the assay with LOX IMVI is 27.5 µM (inactive); in the assay with MDA-MB-231, 82.4 µM (inactive); in the assay with Malme-3M, 58.3 µM (inactive); with NCI-H460, 34.8 µM (inactive); in the assay on OVCAR-4, > 100 µM (inactive); in the assay on RPMI-8226, 25.2 µM (inactive). In addition, the GI50 in the assay with RXF 393 is 27.4 µM (inactive); in the assay with SF-268 it was > 100 µM (inactive); with SF-539, > 100 µM (inactive); in the assay on SR, 10.8 µM (inactive); with TK-10, > 100 µM (inactive); with UACC-257, 39.5 µM (inactive). The GI50 with UO-31 was > 100 µM (inactive).

Consider `CC(C)n1c(=O)[nH]n(-c2ccccc2)c1=O`, for which the GI50 in the assay with A498, in the assay with CCRF-CEM, with HL-60, in the assay on HOP-62, in the assay with HOP-92 and in the assay on Hs-578T was > 100 µM (inactive) each time. In addition, the GI50 with LOX IMVI, in the assay on MDA-MB-231, with Malme-3M, in the assay on NCI-H460, with OVCAR-4 and with RPMI-8226 was > 100 µM (inactive) in each case. Moreover, the GI50 in the assay with RXF 393, in the assay on SF-268, in the assay on SF-539, in the assay with SR, in the assay on TK-10 and in the assay with UACC-257 was > 100 µM (inactive) each time. Moreover, in the assay with UO-31, the GI50 is > 100 µM (inactive).

In the case of `COC(=O)C1=C(OC(=O)/C(=C/c2ccc(Cl)cc2)c2ccccc2)C(C(=O)OC)[C@@]2(O)[C@@H](C(=O)OC)[C@H](C)C[C@@H]1[C@@H]2C(=O)OC` (stereo not given in full), the GI50 is 5.55 µM (inactive) with A498; > 100 µM (inactive) in the assay with CCRF-CEM; > 100 µM (inactive) with HL-60; > 100 µM (inactive) with HOP-62; 0.573 µM (active) in the assay with HOP-92; 37 µM (inactive) in the assay with Hs-578T. Besides, the GI50 is > 100 µM (inactive) in the assay with LOX IMVI; > 100 µM (inactive) in the assay with MDA-MB-231; > 100 µM (inactive) in the assay with Malme-3M; 61.4 µM (inactive) in the assay on NCI-H460; > 100 µM (inactive) with OVCAR-4; > 100 µM (inactive) with RPMI-8226. For the same compound, the GI50 was 3.01 µM (inactive) in the assay with RXF 393; > 100 µM (inactive) in the assay on SF-268; > 100 µM (inactive) with SF-539; > 100 µM (inactive) in the assay with SR; > 100 µM (inactive) with TK-10; > 100 µM (inactive) in the assay with UACC-257. Also, the GI50 with UO-31 was > 100 µM (inactive).
